Assay results as given in ChEMBL document CHEMBL3885881, “DrugMatrix”.

Species on record: Rattus norvegicus
Test: DrugMatrix - Regimen: Daily Repeat
Assay type: toxicity, organism-based, Sprague-Dawley
Set-up: regimen Daily Repeat, gender Male, age 6-8 weeks
Details: in vivo, po, route oral GAVAGE, […]; for ABSOLUTE BASOPHIL / ABSOLUTE EOSINOPHIL / ABSOLUTE LYMPHOCYTE / ABSOLUTE MONOCYTE / ABSOLUTE SEGMENTED NEUTROPHIL / BASOPHIL / EOSINOPHIL / ERYTHROCYTE COUNT / HEMATOCRIT / HEMOGLOBIN / LEUKOCYTE COUNT / LYMPHOCYTE / MEAN CORPUSCULAR HEMOGLOBIN / MEAN CORPUSCULAR HEMOGLOBIN CONCENTRATION / MEAN CORPUSCULAR VOLUME / MONOCYTE / NEUTROPHIL / NUCLEATED RED BLOOD CELLS / PLATELET COUNT: tissue Blood; for ALANINE AMINOTRANSFERASE / ALBUMIN / ALKALINE PHOSPHATASE / ASPARTATE AMINOTRANSFERASE / BLOOD UREA NITROGEN / CARBON DIOXIDE / CHLORIDE / CHOLESTEROL / CREATINE PHOSPHOKINASE / CREATININE / GLUCOSE / LACTATE DEHYDROGENASE / LIPASE / PHOSPHORUS / POTASSIUM / SODIUM / TOTAL BILIRUBIN / TOTAL PROTEIN / URIC ACID: tissue Plasma
[1] = 12 mg/kg, 120 h, dose level Low, time 5 day
[2] = 380 mg/kg, 72 h, dose level High, time 3 day
[3] = 380 mg/kg, 120 h, dose level High, time 5 day

## COc1ncnc(NS(=O)(=O)c2ccc(N)cc2)c1OC [SULFADOXINE]
[1]
  ABSOLUTE BASOPHIL: 0 CELLS/uL
  ABSOLUTE EOSINOPHIL: 0 CELLS/uL
  ABSOLUTE LYMPHOCYTE: 10205.33 CELLS/uL
  ABSOLUTE MONOCYTE: 178 CELLS/uL
  ABSOLUTE SEGMENTED NEUTROPHIL: 483.33 CELLS/uL
  BASOPHIL: 0%
  EOSINOPHIL: 0%
  ERYTHROCYTE COUNT: 5.46 x10E6/uL
  HEMATOCRIT: 34.5%
  HEMOGLOBIN: 13.53 G/DL
  LEUKOCYTE COUNT: 10.87 x10E3/uL
  LYMPHOCYTE: 94%
  MEAN CORPUSCULAR HEMOGLOBIN: 24.8 pg
  MEAN CORPUSCULAR HEMOGLOBIN CONCENTRATION: 39.27 G/DL
  MEAN CORPUSCULAR VOLUME: 63.17 fL
  MONOCYTE: 1.67%
  NEUTROPHIL: 4.33%
  NUCLEATED RED BLOOD CELLS: 0 /100WBC
  PLATELET COUNT: 1312.33 x10E3/uL
  ALANINE AMINOTRANSFERASE: 52 u/L
  ALBUMIN: 4.1 G/DL
  ALKALINE PHOSPHATASE: 476 u/L
  ASPARTATE AMINOTRANSFERASE: 74.33 u/L
  BLOOD UREA NITROGEN: 11.67 mg/dL
  CARBON DIOXIDE: 31.67 mmol/L
  CHLORIDE: 101.67 MEQ/L
  CHOLESTEROL: 65.33 mg/dL
  CREATINE PHOSPHOKINASE: 233 u/L
  CREATININE: 0.14 mg/dL
  GLUCOSE: 140.33 mg/dL
  LACTATE DEHYDROGENASE: 125.67 u/L
  LIPASE: 11.33 u/L
  PHOSPHORUS: 10.5 mg/dL
  POTASSIUM: 5.98 MEQ/L
  SODIUM: 148.87 MEQ/L
  TOTAL BILIRUBIN: 0.27 mg/dL
  TOTAL PROTEIN: 5.87 G/DL
  URIC ACID: 0.53 mg/dL
[2]
  ABSOLUTE BASOPHIL: 0 CELLS/uL
  ABSOLUTE EOSINOPHIL: 29.33 CELLS/uL
  ABSOLUTE LYMPHOCYTE: 8090 CELLS/uL
  ABSOLUTE MONOCYTE: 197 CELLS/uL
  ABSOLUTE SEGMENTED NEUTROPHIL: 650.33 CELLS/uL
  BASOPHIL: 0%
  EOSINOPHIL: 0.33%
  ERYTHROCYTE COUNT: 5.01 x10E6/uL
  HEMATOCRIT: 31.2%
  HEMOGLOBIN: 12.27 G/DL
  LEUKOCYTE COUNT: 8.97 x10E3/uL
  LYMPHOCYTE: 90%
  MEAN CORPUSCULAR HEMOGLOBIN: 24.6 pg
  MEAN CORPUSCULAR HEMOGLOBIN CONCENTRATION: 39.4 G/DL
  MEAN CORPUSCULAR VOLUME: 62.43 fL
  MONOCYTE: 2.33%
  NEUTROPHIL: 7.33%
  NUCLEATED RED BLOOD CELLS: 0 /100WBC
  PLATELET COUNT: 1128.67 x10E3/uL
  ALANINE AMINOTRANSFERASE: 92.33 u/L
  ALBUMIN: 3.93 G/DL
  ALKALINE PHOSPHATASE: 373.33 u/L
  ASPARTATE AMINOTRANSFERASE: 93.67 u/L
  BLOOD UREA NITROGEN: 13 mg/dL
  CARBON DIOXIDE: 32.33 mmol/L
  CHLORIDE: 99.67 MEQ/L
  CHOLESTEROL: 78 mg/dL
  CREATINE PHOSPHOKINASE: 280 u/L
  CREATININE: 0.14 mg/dL
  GLUCOSE: 143 mg/dL
  LACTATE DEHYDROGENASE: 116.67 u/L
  LIPASE: 11.67 u/L
  PHOSPHORUS: 9.13 mg/dL
  POTASSIUM: 5.99 MEQ/L
  SODIUM: 144.13 MEQ/L
  TOTAL BILIRUBIN: 0.2 mg/dL
  TOTAL PROTEIN: 5.5 G/DL
  URIC ACID: 0.37 mg/dL
[3]
  ABSOLUTE BASOPHIL: 0 CELLS/uL
  ABSOLUTE EOSINOPHIL: 0 CELLS/uL
  ABSOLUTE LYMPHOCYTE: 5345.67 CELLS/uL
  ABSOLUTE MONOCYTE: 97.67 CELLS/uL
  ABSOLUTE SEGMENTED NEUTROPHIL: 423.33 CELLS/uL
  BASOPHIL: 0%
  EOSINOPHIL: 0%
  ERYTHROCYTE COUNT: 5.09 x10E6/uL
  HEMATOCRIT: 32.47%
  HEMOGLOBIN: 12.83 G/DL
  LEUKOCYTE COUNT: 5.87 x10E3/uL
  LYMPHOCYTE: 91.33%
  MEAN CORPUSCULAR HEMOGLOBIN: 25.23 pg
  MEAN CORPUSCULAR HEMOGLOBIN CONCENTRATION: 39.53 G/DL
  MEAN CORPUSCULAR VOLUME: 63.77 fL
  MONOCYTE: 1.67%
  NEUTROPHIL: 7%
  NUCLEATED RED BLOOD CELLS: 0 /100WBC
  PLATELET COUNT: 1282.67 x10E3/uL
  ALANINE AMINOTRANSFERASE: 65.67 u/L
  ALBUMIN: 3.97 G/DL
  ALKALINE PHOSPHATASE: 341.33 u/L
  ASPARTATE AMINOTRANSFERASE: 76 u/L
  BLOOD UREA NITROGEN: 15 mg/dL
  CARBON DIOXIDE: 31.33 mmol/L
  CHLORIDE: 99.33 MEQ/L
  CHOLESTEROL: 75 mg/dL
  CREATINE PHOSPHOKINASE: 205.67 u/L
  CREATININE: 0.2 mg/dL
  GLUCOSE: 145 mg/dL
  LACTATE DEHYDROGENASE: 115.67 u/L
  LIPASE: 10.33 u/L
  PHOSPHORUS: 10.13 mg/dL
  POTASSIUM: 5.99 MEQ/L
  SODIUM: 144.77 MEQ/L
  TOTAL BILIRUBIN: 0.17 mg/dL
  TOTAL PROTEIN: 5.97 G/DL
  URIC ACID: 0.6 mg/dL
